According to patent US8765433B2, “Alcohol dehydrogenases (ADH) useful for fermentive production of lower alkyl alcohols” (priority 2009, dated 2014):

What was measured:
[1] = molecular target: T1, Phenylobacterium zucineum HLK1 ADH (PzADH), SEQ ID NO: 34 (Phenylobacterium zucineum, UniProt B4RIA4); test: isobutyraldehyde reduction kinetics (A340, initial rates); format: biochemical
T1 sequence (B4RIA4 1-345): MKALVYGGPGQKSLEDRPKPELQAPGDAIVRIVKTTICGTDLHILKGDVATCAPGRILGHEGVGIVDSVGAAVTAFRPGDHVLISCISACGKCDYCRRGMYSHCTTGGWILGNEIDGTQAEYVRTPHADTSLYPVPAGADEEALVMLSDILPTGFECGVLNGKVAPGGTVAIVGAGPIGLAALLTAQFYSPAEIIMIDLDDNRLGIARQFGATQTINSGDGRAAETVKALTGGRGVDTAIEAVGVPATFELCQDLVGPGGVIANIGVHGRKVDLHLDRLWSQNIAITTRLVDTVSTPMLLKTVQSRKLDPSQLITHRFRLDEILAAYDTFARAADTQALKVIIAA
Description: (§1) This example describes preparation of ADH-gene constructs for over-expression/purification and measurement of enzyme activities using a time-course assay. Horse-liver ADH (HLADH; A-6128) was purchased from Sigma. Achromobacter xylosoxidans SadB (SadB), Saccharomyces cerevisiae ADH6 (ScADH6) and ADH7 (ScADH7), Entamoeba histolytica ADH1 (EhADH1), Bos Taurus Aldehyde Reductase (BtARD), Beijerinckia indica subsp. Indica ATCC 9039 (BiADH), Clostridium beijerinckii ADH (CbADH), Rana perezi ADH8 (RpADH8), Rattus norvegicus ADH1 (RnADH1), Thermus sp. ATN1 ADH (TADH), Phenylobacterium zucineum HLK1 ADH (PzADH), Methylocella silvestris BL2 ADH (MsADH), Acinetobacter baumannii AYE ADH (AbADH), Geobacillus sp. WCH70 ADH (GbADH), Vanderwaltozyma polyspora DSM 70294 ADH (VpADH), Mucor circinelloides ADH (McADH), and Rhodococcus erythropolis PR4ADH (ReADH) were the candidates for which subclones were prepared for protein expression and purification.
(§2) As a routine practice, the crude extracts and purified proteins were assayed for butanol oxidation activity, in order to ensure that the recombinant proteins were active throughout the purification process. […] Alcohol oxidation activities were carried out in 50 mM sodium phosphate buffer at pH 8.8 and aldehyde reduction reactions were assayed in 190 mM potassium phosphate buffer at pH 7.0. Depending on the nature of reaction being carried out, the enzyme and cofactor stocks were diluted in the reaction buffers at the respective pHs. Either buffer or cell extract prepared from the proprietary E. coli strain (with no ADH plasmid) was used as the negative control for assays with purified protein and cell-free extracts, respectively.
Kinetic constants of the ADH enzymes were calculated and compared to identify those candidate ADH enzymes with the most desirable properties for the conversion of isobutyraldehyde to isobutanol in the last step of the engineered pathway for isobutanol production. The assays for determining the kinetic constants were carried out using initial rates from the assays described above. […] The concentration of a given enzyme was such that it was conducive for the measurement of initial velocities over a 1-min time course. For each enzyme, Michaelis-Menten plots were generated with a broad range of substrate concentrations. Rough estimates of KM were obtained, based on which the assays were redesigned so as to use substrate concentrations in the range 0.5 to 10 times the KM value, to be able to obtain the appropriate kinetic constants. […] When calculating the KI for isobutanol, the same reactions were carried out in the presence of varying concentrations of isobutanol (generally 0-535 mM) in the reaction (see FIG. 7, for example). Reactions with isobutanol substrate were performed at 30° C. in 50 mM Sodium phosphate buffer, pH 8.8, containing 7.5 mM NAD. The Enzyme kinetics module (Version 1.3) of SigmaPlot 11 (Systat Software, Inc.) was used to fit data to Michaelis-Menten equations and calculate the kinetic constants. The kcat/KM is derived from the individual numbers of kcat and KM and not an experimentally determined value. The ratios of the KM, KI, and kcat/KM for each candidate enzyme as compared to the same parameter for SadB are given in Table 9.
Seven additional candidate ADH enzymes were synthesized, expressed, and assayed according to methods such as described in Example 2. Kinetic constants obtained for the indicated ADH enzymes (Phenylobacterium zucineum HLK1 ADH (PzADH), Methylocella silvestris BL2 ADH (MsADH), Acinetobacter baumannii AYE ADH (AbADH), Geobacillus sp. WCH70 ADH (GbADH), and Mucor circinelloides ADH (McADH)) are given in Table 8. A comparison of KM, KI, and kcat/KM for each candidate enzyme as compared to the same parameter for SadB are given in Table 9 as a percentage of the values determined (Table 7) for SadB. […]

[2] = molecular target: T2, Beijerinckia indica subsp. Indica ATCC 9039 ADH (BiADH), SEQ ID NO: 31 (Beijerinckia indica, UniProt B2IGW3); format: biochemical
T2 sequence (B2IGW3 1-347): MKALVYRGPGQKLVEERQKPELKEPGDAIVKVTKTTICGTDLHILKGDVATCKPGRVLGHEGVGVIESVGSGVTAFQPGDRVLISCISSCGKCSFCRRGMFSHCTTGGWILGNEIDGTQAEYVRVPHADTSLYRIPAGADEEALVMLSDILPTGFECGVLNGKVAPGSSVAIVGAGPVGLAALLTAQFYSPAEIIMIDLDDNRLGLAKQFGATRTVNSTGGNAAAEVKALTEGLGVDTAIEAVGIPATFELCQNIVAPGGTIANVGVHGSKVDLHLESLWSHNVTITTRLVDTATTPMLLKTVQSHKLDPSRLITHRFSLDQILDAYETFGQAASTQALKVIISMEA
Description: as §1, §2
Kinetic constants of the ADH enzymes were calculated and compared to identify those candidate ADH enzymes with the most desirable properties for the conversion of isobutyraldehyde to isobutanol in the last step of the engineered pathway for isobutanol production. The assays for determining the kinetic constants were carried out using initial rates from the assays described above. […] The concentration of a given enzyme was such that it was conducive for the measurement of initial velocities over a 1-min time course. For each enzyme, Michaelis-Menten plots were generated with a broad range of substrate concentrations. Rough estimates of KM were obtained, based on which the assays were redesigned so as to use substrate concentrations in the range 0.5 to 10 times the KM value, to be able to obtain the appropriate kinetic constants. […] Reactions with isobutanol substrate were performed at 30° C. in 50 mM Sodium phosphate buffer, pH 8.8, containing 7.5 mM NAD. The Enzyme kinetics module (Version 1.3) of SigmaPlot 11 (Systat Software, Inc.) was used to fit data to Michaelis-Menten equations and calculate the kinetic constants. The kcat/KM is derived from the individual numbers of kcat and KM and not an experimentally determined value.
For those enzymes marked with an asterisk in Table 7, at least 3 assays were performed with separate preparations of the enzyme. All other numbers are values from either one assay or are averages from 2 assays performed with the same enzyme sample.

CC(C)CO [isobutanol, 2-methylpropan-1-ol]
Ki ([1]; read-out: KI (Isobutanol)): 13 mM
KI as a percentage of the same parameter for SadB ([1]; relative to SadB): 7%
KI as a percentage of the same parameter for SadB ([2]; relative to SadB): 20%

CC(C)C=O [isobutyraldehyde]
KM as a percentage of the same parameter for SadB ([1]; relative to SadB): 10%
kcat as a percentage of the same parameter for SadB ([1]; relative to SadB): 28%
kcat/KM as a percentage of the same parameter for SadB ([1]; relative to SadB): 243%
catalytic efficiency for isobutyraldehyde reduction, BiADH relative to SadB ([2]; compared with SadB): ~12 times
KM as a percentage of the same parameter for SadB ([2]; relative to SadB): 20%
kcat as a percentage of the same parameter for SadB ([2]; relative to SadB): 260%
kcat/KM as a percentage of the same parameter for SadB ([2]; relative to SadB): 1192%
